A short description of the assay: Inhibition of Mycobacterium tuberculosis H37Rv PDF expressed in Escherichia coli using N-formyl-methionine-alanine-serine as substrate incubated for 2.5 mins by fluorescence based microplate reader analysis.

One may read the IC50 as the concentration needed to halve the response being measured. With `CCCC[C@H](CN(O)C=O)C(=O)N1CCC[C@H]1C(=O)Nc1ccccn1`, 69.5 nM corresponded to half-maximal inhibition (IC50).

The values above are taken from ChEMBL document CHEMBL5143637, “Design, synthesis and antibacterial activity against pathogenic mycobacteria of conjugated hydroxamic acids, hydrazides and O-alkyl/O-acyl protected hydroxamic derivatives” (Bioorg Med Chem Lett, 2022).
